Assays:
Female db/db mice = test: HbA1c, 4 weeks treatment in db/db mice; format: in vivo; conditions: 28 days, vehicle 9.06%
Description: Female db/db mice were purchased from Taconic (Lille Skensved, Denmark) at 5-6 weeks of age and were maintained under standard conditions (5 animals/cage; 12 h light-dark cycle; room temperature of 22±2° C.; relative humidity of 60±15%). All mice had free access to water and standard chow (Provimi Kliba, Kaiseraugst, Switzerland). Four days upon arrival animals were randomized based on body weight and levels of glycated hemoglobin 1c (HbA1c). At 7 weeks of age, animals were treated daily by oral gavage with vehicle (4% methylcellulose) or with Compound A (composed in aqueous 4% methylcellulose) using doses of 1, 3 and 10 mg/kg s.i.d. (doses related to free base). The required dose was applied in a volume of 10 ml/kg body weight. Each dose group consisted of 10 animals. At the end of the treatment period plasma samples were isolated for determination of HbA1c levels. All experimental procedures were conducted according to the German Animal Protection Law.
HbA1c was analyzed from tail-tip-blood (HbA1c determination before treatment) as well as from blood collected from the retro-orbital venous plexus (HbA1c determination after 4 weeks treatment) using the Hemoglobin A1c Test (Siemens, Bad Nauheim, Germany).
Statistical analysis: Values are presented as means±SEM. Statistical differences were determined using one-way-ANOVA followed by a post-hoc analysis with Dunnet's correction (GraphPad Prism).

[1] = tested on: Tumor Necrosis Factor Alpha (TNFα); test: Systemic TNFα release in LPS-challenged Sprague Dawley rats; format: in vivo; conditions: SD rats; 0.1, 0.3, 1, 3 and 10 mg/kg p.o. 1 h before LPS 20 μg/kg i.v.; plasma 1 h after LPS; significant at all doses
Description: Compound A was administered 1 h before LPS challenge at doses of 0.1, 0.3, 1, 3 and 10 mg/kg (n=8 animals per dose group). An LPS and vehicle treated control group of n=8 animals was enclosed. Compound A or vehicle was given per os (p.o.) by gavage (administration volume: 10 mL/kg b.w.). LPS was injected intravenously (i.v.) at a dose of 20 μg/kg (administration volume: 1 mL/kg b.w.) 1 h after compound or vehicle administration.
One hour after LPS-challenge, the animals were sacrificed by inhalative isoflurane anaesthesia (5%; flow rate: 2-3 L/min) and subsequent cervical dislocation. Heparinized blood was obtained by heart puncture. Blood was centrifuged (21,000×g, 4° C., 10 min), and plasma samples were kept frozen at −20° C. until determination of TNFα levels by ELISA.

Homozygous LDLR-KO mice [2] = test: Prophylactic effects in a mouse model of NASH (LDLR-KO mice, mCDAA diet); format: in vivo; conditions: LDLR-KO mice on mCDAA diet, 1, 3 and 10 mg/kg p.o. QD for 7 weeks
Description: Prophylactic effects of Compound A on parameters such as a) hepatic fibrosis formation, b) hepatic triglyceride formation and c) plasma ALT reduction were examined in a rodent model of NASH.
(§1) Homozygous low-density lipoprotein receptor knockout (LDLR-KO) mice were fed with chow or modified choline deficient, L-amino acid-defined (mCDAA) diet (A08111307, Research Diets, USA). After 1 week under chow or mCDAA diet, the mice were orally dosed with Compound A (1, 3 and 10 mg/5 ml/kg, QD, n=10; suspension in 0.5 w/v % methylcellulose suspension) for 7 weeks.

[3] = tested on: tissue inhibitor of metalloproteases-1 (TIMP-1) gene expression; test: Hepatic gene expression in prophylactic NASH mouse model, TIMP-1 (Taqman PCR); format: in vivo; conditions: LDLR-KO mice on mCDAA diet; 1, 3 and 10 mg/kg p.o. QD for 7 weeks; liver mRNA
Description: as §1
(§2) In addition prophylactic effects of Compound A on hepatic gene expression were evaluated. After total RNA was extracted from liver, cDNA was amplified using High-Capacity cDNA Reverse Transcription Kit (ABI 4368813), and target gene mRNA was measured using Taqman PCR. The target gene expression level was normalized by GAPDH.

Homozygous LDLR-KO mice [4] = test: Therapeutic effects in a mouse model of NASH (LDLR-KO mice, mCDAA diet, after fibrosis formation); format: in vivo; conditions: 6 weeks mCDAA diet then 4 and 8 mg/kg p.o. QD for 10 weeks (therapeutic)
Description: To evaluate therapeutic potential of Compound A, effects of Compound A were additionally examined after hepatic fibrosis formation. Homozygous LDLR-KO mice were fed with chow or mCDAA diet (A08111307, Research Diets, USA). After 6 week under chow or mCDAA diet, the mice were orally dosed with Compound A (4, and 8 mg/5 mL/kg, QD, n=12; suspension in 0.5 w/v % methylcellulose solution) for 10 weeks.

[5] = tested on: alfa smooth muscle actin (αSMA) gene expression in human stellate cells (HSCs); test: Anti-fibrotic activity in human hepatic stellate cells (TGF-β-induced αSMA gene expression); format: cell-based; conditions: primary human HSCs; 0.0001-1 μM, TGF-β 0.2 ng/mL, forskolin 1 μM, 24 hours
Description: The effect on human stellate cells (HSCs) activation was evaluated by gene expression of alfa smooth muscle actin (αSMA) induced by TGF-β.
Primary HSCs (ScienCell) were suspended in serum-free SteCM medium (ScienCell) and seeded on Poly-D-Lysine-coated 96 well plates as 2.5×10^3 cells/100 uL/well. Six hours after the seeding, HSCs were treated with Compound A (0, 0.0001, 0.001, 0.01, 0.1, and 1 μM), TGF-β (0.2 ng/mL) and forskolin (1 μM) for 24 hours. After the 24-hours incubation, total RNA was extracted from cell lysate using RNeasy 96 Kit (QIAGEN 74182). cDNA was amplified using High-Capacity cDNA Reverse Transcription Kit (ABI 4368813), and target gene mRNA was measured using Taqman PCR. The target gene expression level was normalized by GAPDH. The experiment was repeated 5 times.

TNFα gene expression = test: Hepatic gene expression in prophylactic NASH mouse model, TNFα (Taqman PCR); format: in vivo; conditions: LDLR-KO mice on mCDAA diet; 1, 3 and 10 mg/kg p.o. QD for 7 weeks; liver mRNA
Description: as §1, §2

CCOc1cc2c(cc1OC)C(c1ccc(=O)n(C)c1)=N[C@@H]1CC[C@@H](O)C[C@H]21 [Compound A, 5-((2R,4aR,10bR)-9-Ethoxy-2-hydroxy-8-methoxy-1,2,3,4,4a,10b-hexahydro-phenanthridin-6-yl)-1-methyl-1H-pyridin-2-one] was tested, and the “mean HbA1c” value (Female db/db mice; 1 mg/kg p.o. daily, 1 mg/kg) was 7.27%, the “mean HbA1c” value (Female db/db mice; 3 mg/kg p.o. daily, 3 mg/kg) was 7.06% and the “mean HbA1c” value (Female db/db mice; 10 mg/kg p.o. daily, 10 mg/kg) was 6.16%. For the same molecule, the “mean TNFα in blood plasma” value [1] was “dose-dependently reduced”, the Body weight (Homozygous LDLR-KO mice [2]) was “slightly decreased” and the “Hepatic triglyceride (TG) content” value (Homozygous LDLR-KO mice [2]) was “significantly reduced”. For the same molecule, the Liver weight (Homozygous LDLR-KO mice [2]) was “dose dependently decreased”, the “epididymal white adipose tissue (surrogate for body fat mass)” value (Homozygous LDLR-KO mice [2]) was “dose dependently decreased” and the food intake (Homozygous LDLR-KO mice [2]) was “no change”. The “plasma ALT levels” value (Homozygous LDLR-KO mice [2]) was “significantly reduced”, the hepatic fibrosis area (Homozygous LDLR-KO mice [2]; started after 1 week of diet) was “dose-dependent reduction” and the “hepatic TIMP-1 gene expression (normalized by GAPDH)” value [3] was “dose-dependent reduction”. For the same molecule, the “hepatic TG content” value (Homozygous LDLR-KO mice [4]) was “significantly reduced from the initial value”, the hepatic fibrosis area (Homozygous LDLR-KO mice [4]) was “reduction” and the “TGF-β-induced αSMA gene expression in HSCs” value [5] was “dose-dependently suppressed”. The “hepatic inflammatory TNFα gene expression (normalized by GAPDH)” value (TNFα gene expression) was “dose-dependent reduction”.
